These results are taken from patent EP0189755A1, “Pharmaceutical composition” (F. HOFFMANN-LA ROCHE AG, priority 1985, dated 1986).

For one series, the system named is P388 leukemia cells. Kind of series: Antitumor effects against intraperitoneally implanted P388 leukemia in mice (increase in life span, survival, body weight). The following applies: for dose ILS30: dose of 5'-DFUR or 5-FU giving ILS30; for dose ILS30 / dose ILSmax: GMP 100 mg/kg/day in the combinations, unit not given in Table 4; for dose ILSmax: dose of 5'-DFUR or 5-FU giving ILSmax. The procedure: BDF1 male mice weighing 21 to 23 g were used as experimental animals. P388 leukemia cells were implanted intraperitoneally into the mice. Seven days after the implantation, ascites were collected and diluted with saline to prepare the suspension containing 10^6 P388 leukemia cells in 0.05 ml. The mice were intraperitoneally implanted on day 0 with 10^6 P388 cells. Each group contained 6 mice. 5'-DFUR and GMP were dissolved in saline, alone or combined with each other. The test compounds were administered intraperitoneally from day 1 to day 5. The antitumor effects were evaluated by the increase in life span over control (ILS) calculated by the following formula: [formula] T: Mean survival time (days) in the test drug groups C: Mean survival time (days) in the control group administered intraperitoneally with saline alone
The safety of the drug was evaluated by the therapeutic ratio; the dose ILSmax / the dose ILS30.
In a manner analogous to that described in (1) above except that 5'-DFCR was used instead of 5'-DFUR, the antitumor effects thereof was tested as a referential example.

The next series is described as follows: Acute toxicity. The series is classed as in vivo, male ICR mice. As for the experimental part: Groups of 5 weeks old male ICR mice were treated intraperitoneally with 5'-DFUR and GMP at the dosage given in the- following Table 6. Each mice group contained 5 mice. Two weeks after, the number of died mice were counted.
Where [1] appears, read: 5'-DFCR 28 mg/kg/day, without GMP.
Where [2] appears, read: 5'-DFCR 55 mg/kg/day, without GMP.
The mark [3] stands for this setting: 5'-DFCR 110 mg/kg/day, without GMP.
Where [4] appears, read: 5'-DFCR 220 mg/kg/day, without GMP.

The T/C is the result in the treated group divided by that in the control group, in per cent. Consider `C[C@H]1O[C@@H](n2cc(F)c(N)nc2=O)[C@H](O)[C@@H]1O` [5'-DFCR], for which the “Survival days (mean±SD)” value is 10.7 ± 1.5 days in the series with P388 leukemia cells (setting [1]), 10.0 ± 1.7 days in the series on P388 leukemia cells (setting [2]), 10.3 ± 0.5 days in the series on P388 leukemia cells (setting [3]) and 12.0 ± 1.7 days with P388 leukemia cells (setting [4]). Besides, the T/C was determined as 111% in the series on P388 leukemia cells (setting [1]), 104% with P388 leukemia cells (setting [2]), 107% with P388 leukemia cells (setting [3]) and 125% in the series on P388 leukemia cells (setting [4]).

`O=c1[nH]cc(F)c(=O)[nH]1` [5-FU, 5-fluorouracil]: in the series on P388 leukemia cells, the “dose ILS30” value is 0.75 and the “dose ILSmax” value is 20.

In the case of `Nc1nc2c(ncn2[C@@H]2O[C@H](COP(=O)(O)O)[C@@H](O)[C@H]2O)c(=O)[nH]1` [GMP, guanosine-5'-monophosphate], the ILS with P388 leukemia cells (GMP alone 100 mg/kg/day i.p. (5'-DFUR 0)) is -3%; with P388 leukemia cells (GMP alone 300 mg/kg/day i.p. (5'-DFUR 0)) it was 5%; with P388 leukemia cells (GMP alone 500 mg/kg/day i.p. (5'-DFUR 0)), 8%; in the series on P388 leukemia cells (GMP alone 1000 mg/kg/day i.p. (5'-DFUR 0)) it was 1%. The “influence on ILS” value in the series with P388 leukemia cells (GMP alone (Table 3)) is listed as “no influence observed”. Also, in the series with P388 leukemia cells (nucleotide alone 100 mg/kg/day), the “Survival days (mean±SD)” value was 8.8 ± 0.8 days. The same compound showed a T/C with P388 leukemia cells (nucleotide alone 100 mg/kg/day) of 92%. Also, the “number of died mice/number of tested mice” value in the series “Acute toxicity” (GMP 2000 mg/kg, 5'-DFUR 0, intraperitoneally, counted two weeks after) was 0/5; in the series “Acute toxicity” (GMP 4000 mg/kg, 5'-DFUR 0, intraperitoneally, counted two weeks after) it was 1/5.

With `Nc1ncnc2c1ncn2[C@@H]1O[C@H](COP(=O)(O)O)[C@@H](O)[C@H]1O` [AMP, adenosine-5'-monophosphate], in the series on P388 leukemia cells (nucleotide alone 100 mg/kg/day), the “Survival days (mean±SD)” value turned out to be 9.5 ± 1.9 days and the T/C is recorded as 99%.

As for `C[C@H]1O[C@@H](n2cc(F)c(=O)[nH]c2=O)[C@H](O)[C@@H]1O` [5'-DFUR, 5'-deoxy-5-fluorouri-dine], the “Survival days (mean±SD)” value with P388 leukemia cells (5'-DFUR 250 mg/kg/day) amounted to 13.3 ± 0.8 days. Further, the T/C in the series on P388 leukemia cells (5'-DFUR 250 mg/kg/day) is 139%. Moreover, the ILS with P388 leukemia cells (5'-DFUR alone 2 mg/kg/day i.p., day 1 to day 5) amounted to 0%; in the series with P388 leukemia cells (5'-DFUR alone 4 mg/kg/day i.p., day 1 to day 5), 1%; in the series with P388 leukemia cells (5'-DFUR alone 8 mg/kg/day i.p., day 1 to day 5), 8%; with P388 leukemia cells (5'-DFUR alone 16 mg/kg/day i.p., day 1 to day 5), 15%; in the series on P388 leukemia cells (5'-DFUR alone 32 mg/kg/day i.p., day 1 to day 5) it was 21%; with P388 leukemia cells (5'-DFUR alone 63 mg/kg/day i.p., day 1 to day 5) it was 21%. The ILS was determined as 31% in the series on P388 leukemia cells (5'-DFUR alone 125 mg/kg/day i.p., day 1 to day 5); 48% in the series with P388 leukemia cells (5'-DFUR alone 250 mg/kg/day i.p., day 1 to day 5); 24% in the series with P388 leukemia cells (5'-DFUR alone 500 mg/kg/day i.p., day 1 to day 5). Further, in the series with P388 leukemia cells, the “dose ILS30” value was 125. Further, the “dose ILSmax” value with P388 leukemia cells amounted to 250. The ILSmax in the series on P388 leukemia cells (dose series of 5'-DFUR i.p., GMP at 100 mg/kg/day in the combination group) is 48%. The “number of died mice/number of tested mice” value in “Acute toxicity” (mouse, in vivo) is on record as 0/5.
